# From patent US9050341B2, “Methods of treating drug resistant and other tumors by administering 6,7-dialkoxy quinazoline derivatives” (NATCO PHARMA LIMITED, priority 2009, dated 2015)
# Assays:
# Assay in all cases: KinomeScan kinase profiling
# Type in all cases: binding
# NEK7 = biological target: T1, NEK7 (Homo sapiens, UniProt Q8TDX7)
# T1 construct: host or cells: T7 phage in E. coli host derived from BL21
# How it was run: (§1)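 Kinases were expressed as T7 phage fusions in a BL21-derived E. coli host and the cleared lysates were used. Ligand beads were blocked with biotin and buffer (1% BSA, 0.05% Tween 20, 1 mM DTT). Compounds came from 40× DMSO stocks, and phage in the eluates was titred by qPCR.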
# BRAF (V600E) = biological target: T2, BRAF (V600E) (Homo sapiens, UniProt P15056, V600E)
# T2 construct: purchased Ambit Biosciences Corp (KinomeScan); host or cells: E. coli host derived from the BL21 strain, T7 phage
# How it was run: as §1
# MST3 = biological target: T3, MST3 (Homo sapiens, UniProt Q9Y6E0)
# T3 construct: host or cells: T7 phage in E. coli host derived from BL21
# How it was run: as §1
# ACVR2A = biological target: T4, ACVR2A (Homo sapiens, UniProt P27037)
# T4 construct: host or cells: E. coli host derived from BL21 (T7 phage lysate)
# How it was run: as §1
# MYO3B = biological target: T5, MYO3B (Homo sapiens, UniProt Q8WXR4)
# T5 construct: host or cells: T7 phage in E. coli host derived from BL21
# How it was run: as §1
# EPHA7 = biological target: T6, EPHA7 (Homo sapiens, UniProt Q15375)
# T6 construct: host or cells: E. coli host derived from BL21, T7 phage lysate
# How it was run: as §1
# FLT3 (D835Y) = biological target: T7, FLT3 (D835Y) (Homo sapiens, UniProt P36888, D835Y)
# T7 construct: host or cells: E. coli host derived from BL21, infected with T7 phage
# How it was run: as §1
# ADCK3 = biological target: T8, ADCK3 (Homo sapiens, UniProt Q8NI60)
# T8 construct: host or cells: E. coli host derived from BL21 (T7 phage lysate)
# How it was run: as §1
# AMPK-alpha2 = biological target: T9, AMPK-alpha2 (Homo sapiens, UniProt P54646)
# T9 construct: host or cells: E. coli host derived from BL21 (T7 phage lysate)
# How it was run: as §1
# STK36 = biological target: T10, STK36 (Homo sapiens, UniProt Q9NRP7)
# T10 construct: host or cells: E. coli host derived from the BL21 strain, T7 phage lysate
# How it was run: as §1
# CDKL2 = biological target: T11, CDKL2 (Homo sapiens, UniProt Q92772)
# T11 construct: host or cells: T7 phage in E. coli (BL21-derived)
# How it was run: as §1
# MRCKB = biological target: T12, MRCKB (Homo sapiens, UniProt Q9Y5S2)
# T12 construct: host or cells: T7 phage in E. coli host derived from BL21
# How it was run: as §1
# FLT1 = biological target: T13, FLT1 (Homo sapiens, UniProt P17948)
# T13 construct: host or cells: E. coli host derived from BL21, infected with T7 phage
# How it was run: as §1
# [1] = biological target: T14, RPS6KA5 (Kin.Dom.-1-N-terminal) (Homo sapiens, UniProt O75582)
# T14 construct: RPS6KA5 (Kin.Dom.-1-N-terminal); host or cells: E. coli host derived from BL21, T7 phage lysate
# How it was run: as §1
# PRKD1 = biological target: T15, PRKD1 (Homo sapiens, UniProt Q15139)
# T15 construct: purchased Ambit Biosciences Corp (KinomeScan); host or cells: E. coli host derived from BL21, infected with T7 phage
# How it was run: as §1
# LATS1 = biological target: T16, LATS1 (Homo sapiens, UniProt O95835)
# T16 construct: host or cells: T7 phage in E. coli host derived from BL21
# How it was run: as §1
# MET = biological target: T17, MET (Homo sapiens, UniProt P08581)
# T17 construct: host or cells: E. coli derived from BL21, infected with T7 phage
# How it was run: as §1
# BMPR1B = biological target: T18, BMPR1B (Homo sapiens, UniProt O00238)
# T18 construct: purchased Ambit Biosciences Corp (KinomeScan); host or cells: E. coli host derived from the BL21 strain, T7 phage
# How it was run: as §1
# PIP5K1A = biological target: T19, PIP5K1A (Homo sapiens, UniProt Q99755)
# T19 construct: purchased Ambit Biosciences Corp (KinomeScan); host or cells: E. coli host derived from BL21, infected with T7 phage
# How it was run: as §1
# ABL2 = biological target: T20, ABL2 (Homo sapiens, UniProt P42684)
# T20 construct: host or cells: E. coli host derived from BL21 (T7 phage lysate)
# How it was run: as §1
# MAP3K3 = biological target: T21, MAP3K3 (Homo sapiens, UniProt Q99759)
# T21 construct: host or cells: E. coli derived from BL21, infected with T7 phage
# How it was run: as §1
# KIT (V559D, T670I) = biological target: T22, KIT (V559D, T670I) (Homo sapiens, UniProt P10721, T670I/V559D)
# T22 construct: host or cells: T7 phage in E. coli host derived from BL21
# How it was run: as §1
# ANKK1 = biological target: T23, ANKK1 (Homo sapiens, UniProt Q8NFD2)
# T23 construct: host or cells: E. coli host derived from BL21 (T7 phage lysate)
# How it was run: as §1
# T16 sequence (O95835 whole entry): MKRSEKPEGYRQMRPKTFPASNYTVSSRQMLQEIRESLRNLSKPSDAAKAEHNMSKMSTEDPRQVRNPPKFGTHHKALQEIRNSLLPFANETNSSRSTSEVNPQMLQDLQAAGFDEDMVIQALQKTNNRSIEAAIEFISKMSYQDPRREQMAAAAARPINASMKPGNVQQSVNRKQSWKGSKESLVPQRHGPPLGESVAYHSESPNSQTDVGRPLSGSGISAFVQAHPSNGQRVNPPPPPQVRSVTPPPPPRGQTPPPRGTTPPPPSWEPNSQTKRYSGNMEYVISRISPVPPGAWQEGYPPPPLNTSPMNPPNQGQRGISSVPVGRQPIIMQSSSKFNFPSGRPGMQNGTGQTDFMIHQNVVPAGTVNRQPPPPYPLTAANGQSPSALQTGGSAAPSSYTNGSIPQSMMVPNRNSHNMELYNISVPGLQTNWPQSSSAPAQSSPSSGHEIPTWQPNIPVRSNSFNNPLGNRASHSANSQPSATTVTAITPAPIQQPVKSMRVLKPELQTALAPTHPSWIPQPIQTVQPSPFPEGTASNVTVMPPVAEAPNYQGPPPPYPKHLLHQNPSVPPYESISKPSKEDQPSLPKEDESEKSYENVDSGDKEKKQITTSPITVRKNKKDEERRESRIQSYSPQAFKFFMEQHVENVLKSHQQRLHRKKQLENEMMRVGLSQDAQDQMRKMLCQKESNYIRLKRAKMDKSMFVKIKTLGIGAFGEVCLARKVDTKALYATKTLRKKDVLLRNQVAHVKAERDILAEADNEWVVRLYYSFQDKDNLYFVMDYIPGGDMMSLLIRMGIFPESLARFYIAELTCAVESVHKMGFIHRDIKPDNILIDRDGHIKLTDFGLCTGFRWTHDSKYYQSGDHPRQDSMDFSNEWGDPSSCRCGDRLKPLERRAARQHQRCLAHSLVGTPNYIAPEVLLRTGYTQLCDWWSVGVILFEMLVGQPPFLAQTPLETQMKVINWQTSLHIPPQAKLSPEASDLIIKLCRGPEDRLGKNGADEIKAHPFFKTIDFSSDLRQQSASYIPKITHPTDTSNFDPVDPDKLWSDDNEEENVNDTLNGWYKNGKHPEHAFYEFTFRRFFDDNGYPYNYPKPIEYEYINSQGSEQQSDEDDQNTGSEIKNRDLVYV
# T21 sequence (Q99759 whole entry): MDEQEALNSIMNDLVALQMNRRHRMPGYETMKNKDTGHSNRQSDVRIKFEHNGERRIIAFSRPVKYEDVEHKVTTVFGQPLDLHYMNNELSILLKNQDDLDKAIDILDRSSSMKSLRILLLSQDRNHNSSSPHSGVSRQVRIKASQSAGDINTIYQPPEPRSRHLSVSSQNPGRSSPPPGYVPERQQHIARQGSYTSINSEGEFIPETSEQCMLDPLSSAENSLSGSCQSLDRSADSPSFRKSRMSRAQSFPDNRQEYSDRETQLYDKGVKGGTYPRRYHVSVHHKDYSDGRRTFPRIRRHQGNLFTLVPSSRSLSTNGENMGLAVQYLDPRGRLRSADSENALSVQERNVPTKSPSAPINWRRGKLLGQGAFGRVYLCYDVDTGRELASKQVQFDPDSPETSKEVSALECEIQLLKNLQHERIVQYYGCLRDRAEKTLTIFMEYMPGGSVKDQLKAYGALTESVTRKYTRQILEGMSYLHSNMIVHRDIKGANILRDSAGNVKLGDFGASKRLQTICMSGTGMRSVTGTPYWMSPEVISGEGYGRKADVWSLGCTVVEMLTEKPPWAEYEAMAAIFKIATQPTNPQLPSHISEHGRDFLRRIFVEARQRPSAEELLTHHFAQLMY
# T2 sequence (P15056 whole entry V600E): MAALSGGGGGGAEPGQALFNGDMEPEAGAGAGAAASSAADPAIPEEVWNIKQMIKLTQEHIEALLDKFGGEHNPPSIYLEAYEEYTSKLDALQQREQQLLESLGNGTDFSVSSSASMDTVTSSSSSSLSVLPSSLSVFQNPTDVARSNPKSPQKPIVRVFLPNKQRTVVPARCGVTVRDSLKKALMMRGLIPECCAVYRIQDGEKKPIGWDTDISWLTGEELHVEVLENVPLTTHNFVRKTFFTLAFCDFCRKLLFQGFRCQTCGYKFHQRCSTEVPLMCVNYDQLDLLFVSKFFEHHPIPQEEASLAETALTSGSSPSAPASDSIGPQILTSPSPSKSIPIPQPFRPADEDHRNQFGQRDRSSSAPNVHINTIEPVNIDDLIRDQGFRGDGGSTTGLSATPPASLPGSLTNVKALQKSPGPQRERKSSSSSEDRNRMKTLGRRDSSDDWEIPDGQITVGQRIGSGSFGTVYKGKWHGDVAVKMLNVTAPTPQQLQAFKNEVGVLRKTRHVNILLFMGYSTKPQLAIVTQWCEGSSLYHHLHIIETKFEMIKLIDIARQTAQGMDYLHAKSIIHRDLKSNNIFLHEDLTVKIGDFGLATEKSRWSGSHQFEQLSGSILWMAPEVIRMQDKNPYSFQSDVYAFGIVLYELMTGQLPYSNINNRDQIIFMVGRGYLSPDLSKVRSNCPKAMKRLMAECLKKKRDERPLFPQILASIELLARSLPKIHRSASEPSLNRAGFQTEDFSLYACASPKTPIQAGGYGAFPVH
# T23 sequence (Q8NFD2 whole entry): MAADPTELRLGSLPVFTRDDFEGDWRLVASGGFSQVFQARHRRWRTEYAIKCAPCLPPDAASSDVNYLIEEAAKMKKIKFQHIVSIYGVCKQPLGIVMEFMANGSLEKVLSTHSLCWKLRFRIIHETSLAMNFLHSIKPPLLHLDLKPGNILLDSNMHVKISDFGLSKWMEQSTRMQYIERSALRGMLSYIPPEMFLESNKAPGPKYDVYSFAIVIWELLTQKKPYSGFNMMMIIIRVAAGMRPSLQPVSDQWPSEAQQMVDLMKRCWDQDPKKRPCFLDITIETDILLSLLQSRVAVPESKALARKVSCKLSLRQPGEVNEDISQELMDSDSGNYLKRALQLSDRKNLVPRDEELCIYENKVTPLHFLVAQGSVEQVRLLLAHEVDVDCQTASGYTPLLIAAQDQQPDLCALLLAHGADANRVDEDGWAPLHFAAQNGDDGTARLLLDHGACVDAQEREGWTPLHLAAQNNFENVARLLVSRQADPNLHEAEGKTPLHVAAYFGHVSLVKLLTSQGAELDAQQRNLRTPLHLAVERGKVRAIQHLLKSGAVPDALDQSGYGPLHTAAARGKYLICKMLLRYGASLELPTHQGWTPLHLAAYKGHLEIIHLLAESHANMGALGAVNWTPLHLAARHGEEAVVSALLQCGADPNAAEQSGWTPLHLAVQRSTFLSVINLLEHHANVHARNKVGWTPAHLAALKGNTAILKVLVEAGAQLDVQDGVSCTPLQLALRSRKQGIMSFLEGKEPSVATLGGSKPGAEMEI
# T17 sequence (P08581 25-1390): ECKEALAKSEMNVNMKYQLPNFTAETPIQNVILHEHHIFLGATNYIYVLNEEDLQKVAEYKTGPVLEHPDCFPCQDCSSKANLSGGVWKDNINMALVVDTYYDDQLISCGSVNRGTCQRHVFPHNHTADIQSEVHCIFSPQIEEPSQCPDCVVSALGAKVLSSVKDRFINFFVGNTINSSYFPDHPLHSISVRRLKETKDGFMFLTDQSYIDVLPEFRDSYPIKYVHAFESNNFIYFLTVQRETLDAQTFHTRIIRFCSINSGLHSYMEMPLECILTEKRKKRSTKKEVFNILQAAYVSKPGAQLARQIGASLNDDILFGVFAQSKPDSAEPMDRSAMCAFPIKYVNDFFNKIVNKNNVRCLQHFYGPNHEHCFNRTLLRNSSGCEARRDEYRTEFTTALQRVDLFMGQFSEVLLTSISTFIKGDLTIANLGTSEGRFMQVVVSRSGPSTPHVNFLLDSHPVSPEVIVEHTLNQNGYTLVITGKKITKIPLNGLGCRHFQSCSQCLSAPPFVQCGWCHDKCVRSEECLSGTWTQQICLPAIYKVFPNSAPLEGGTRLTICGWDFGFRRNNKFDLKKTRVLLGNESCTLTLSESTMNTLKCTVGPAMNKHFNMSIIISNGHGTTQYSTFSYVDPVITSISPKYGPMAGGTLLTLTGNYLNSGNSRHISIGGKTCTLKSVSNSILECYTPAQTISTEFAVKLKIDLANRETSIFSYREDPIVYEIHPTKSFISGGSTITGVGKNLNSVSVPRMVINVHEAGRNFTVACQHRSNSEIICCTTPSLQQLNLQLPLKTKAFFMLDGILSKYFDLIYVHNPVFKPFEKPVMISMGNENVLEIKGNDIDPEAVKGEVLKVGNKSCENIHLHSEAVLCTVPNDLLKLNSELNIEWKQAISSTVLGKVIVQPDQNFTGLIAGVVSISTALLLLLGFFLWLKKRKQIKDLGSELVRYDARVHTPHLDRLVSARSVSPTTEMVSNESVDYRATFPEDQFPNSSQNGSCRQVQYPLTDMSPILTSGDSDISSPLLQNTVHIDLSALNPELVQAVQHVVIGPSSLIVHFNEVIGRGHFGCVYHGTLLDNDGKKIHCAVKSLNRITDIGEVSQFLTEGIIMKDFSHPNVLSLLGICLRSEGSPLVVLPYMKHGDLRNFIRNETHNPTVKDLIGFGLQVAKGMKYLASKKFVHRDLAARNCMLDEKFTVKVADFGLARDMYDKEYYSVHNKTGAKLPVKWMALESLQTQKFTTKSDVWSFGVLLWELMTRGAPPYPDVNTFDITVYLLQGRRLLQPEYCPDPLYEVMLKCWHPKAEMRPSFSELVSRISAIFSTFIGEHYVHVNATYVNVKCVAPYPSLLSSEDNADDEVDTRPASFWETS
# T3 sequence (Q9Y6E0 whole entry): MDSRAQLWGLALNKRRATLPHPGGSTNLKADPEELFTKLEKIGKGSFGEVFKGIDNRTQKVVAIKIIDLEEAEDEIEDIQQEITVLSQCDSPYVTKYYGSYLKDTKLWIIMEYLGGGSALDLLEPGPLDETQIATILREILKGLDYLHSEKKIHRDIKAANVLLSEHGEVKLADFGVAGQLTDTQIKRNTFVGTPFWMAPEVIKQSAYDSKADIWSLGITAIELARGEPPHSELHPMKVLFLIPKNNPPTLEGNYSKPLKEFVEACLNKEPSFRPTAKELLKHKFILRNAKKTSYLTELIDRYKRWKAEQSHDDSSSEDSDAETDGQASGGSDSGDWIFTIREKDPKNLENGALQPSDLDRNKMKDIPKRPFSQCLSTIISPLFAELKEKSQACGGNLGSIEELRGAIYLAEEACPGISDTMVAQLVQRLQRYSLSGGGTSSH
compound,measurement,setting,value
"C#Cc1cccc(Nc2ncnc3cc(OC)c(OCCCN4CCOCC4)cc23)c1 [NRC-2694, N-(3-ethylnylphenyl)-7-methoxy-6-[3-(4-morpholinyl)propoxy]-4-quinazolinamine]",% Ctrl @ 10000 nM,NEK7,78 % Ctrl
same,% Ctrl @ 10000 nM,BRAF (V600E),73 % Ctrl
same,% Ctrl @ 10000 nM,MST3,42 % Ctrl
same,% Ctrl @ 10000 nM,ACVR2A,92 % Ctrl
same,% Ctrl @ 10000 nM,MYO3B,100 % Ctrl
same,% Ctrl @ 10000 nM,EPHA7,70 % Ctrl
same,% Ctrl @ 10000 nM,FLT3 (D835Y),9.4 % Ctrl
same,% Ctrl @ 10000 nM,ADCK3,14 % Ctrl
same,% Ctrl @ 10000 nM,AMPK-alpha2,61 % Ctrl
same,% Ctrl @ 10000 nM,STK36,4.6 % Ctrl
same,% Ctrl @ 10000 nM,CDKL2,67 % Ctrl
same,% Ctrl @ 10000 nM,MRCKB,71 % Ctrl
same,% Ctrl @ 10000 nM,FLT1,64 % Ctrl
same,% Ctrl @ 10000 nM,[1],85 % Ctrl
same,% Ctrl @ 10000 nM,PRKD1,9.6 % Ctrl
same,% Ctrl @ 10000 nM,LATS1,91 % Ctrl
same,% Ctrl @ 10000 nM,MET,33 % Ctrl
same,% Ctrl @ 10000 nM,BMPR1B,78 % Ctrl
same,% Ctrl @ 10000 nM,PIP5K1A,61 % Ctrl
same,% Ctrl @ 10000 nM,ABL2,43 % Ctrl
same,% Ctrl @ 10000 nM,MAP3K3,5.9 % Ctrl
same,% Ctrl @ 10000 nM,"KIT (V559D, T670I)",28 % Ctrl
same,% Ctrl @ 10000 nM,ANKK1,73 % Ctrl
